What was measured:
Experiment in all cases: isothermal titration calorimetry
Type in all cases: binding
[1] = target: T1, Bdf2 bromodomain (Bdf2^9-123) (Trypanosoma brucei, UniProt Q38AM1); conditions: 15°C, pH 7.5, 20 mM Hepes, 150 mM NaCl, 0.5 mM TCEP, 1% DMSO
T1 construct: gene Tb10.6k15.3240; bromodomain, residues 9-123, amplified from genomic DNA, pET28a with N-terminal PreScission-cleavable His6 tag, E. coli; crystal model residues 9-114
T1 sequence (Q38AM1 9-123): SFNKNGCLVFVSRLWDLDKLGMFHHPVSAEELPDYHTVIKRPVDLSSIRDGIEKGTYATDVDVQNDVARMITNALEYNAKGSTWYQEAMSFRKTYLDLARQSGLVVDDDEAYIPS

[2] = target: T2, Bdf3 bromodomain (Bdf3^32-150) (Trypanosoma brucei, UniProt Q383S2); conditions: 15°C, pH 7.5, 20 mM Hepes, 150 mM NaCl, 0.5 mM TCEP, 1% DMSO
T2 construct: gene Tb11.01.1830; bromodomain, residues 32-150, amplified from genomic DNA, pET28a with N-terminal PreScission-cleavable His6 tag, E. coli; strain-construction section prints a conflicting locus Tb427.01.1830
T2 sequence (Q383S2 32-150): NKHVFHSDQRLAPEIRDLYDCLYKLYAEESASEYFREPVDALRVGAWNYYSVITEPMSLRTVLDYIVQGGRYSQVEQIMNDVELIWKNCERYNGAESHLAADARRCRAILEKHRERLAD

[3] = target: T1, Bdf2 bromodomain (Bdf2^9-123)
Source text: isothermal titration calorimetry on Bdf2 bromodomain (Bdf2^9-123) | confirmed direct and specific binding of I-BET151 to their AcK recognition sites

[4] = target: T2, Bdf3 bromodomain (Bdf3^32-150)
Source text: isothermal titration calorimetry on Bdf3 bromodomain (Bdf3^32-150) | confirmed direct and specific binding of I-BET151 to their AcK recognition sites

Cc1sc2c(c1C)C(c1ccc(Cl)cc1)=N[C@@H](CC(=O)OC(C)(C)C)c1nnc(C)n1-2 [JQ1]
no binding detected [1]: we could not detect binding of another well characterized bromodomain inhibitor, JQ1
no binding detected [2]: we could not detect binding of another well characterized bromodomain inhibitor, JQ1

COc1cc2c(cc1-c1c(C)noc1C)ncc1[nH]c(=O)n([C@H](C)c3ccccn3)c12 [I-BET151]
Kd [3]: 225 ± 5 µM
Kd [4]: 175 ± 10 µM

— PMC4672894, “Bromodomain Proteins Contribute to Maintenance of Bloodstream Form Stage Identity in the African Trypanosome” (PLoS Biology, 2015)
